This data set has as its system secondary follicles (folliculogenesis). The experiment in a line: In vitro follicle culture testing the influence of taxol on folliculogenesis and oocyte maturation. The note with it: secondary follicles scored after 13 days. Format: cell-based, mouse. From the text:
Ovarian tissue is isolated from 12 to 14 days old F1 hybrids C57Bl/j6×CBAca mice and kept in a culture dish comprising Leibovitz's L15 medium with GlutaMAX I™ (Gibco BRL 31415-029) with 10% HIA FBS (Heat Inactivated Foetal Bovine Serum) and 0.1% penicillin-streptomycin-mix (Gibco BRL 3032908). The ovaries have to be freed of oviduct and fat.
Not all follicles in suspension from example 1 are suitable for follicle culture. To make sure that all follicles grow at approximately the same rate, the selected follicles should have a similar diameter. In this specific case, a diameter of between 100 and 130 μm is suitable and points to development of the follicle up to the early preantral (secondary) stage. […] FIG. 2b. Said follicles further comprise theca-interstitial cells 17, a basal membrane 19 and a zona pellucida 21. Follicles are observed under a stereomicroscope and measured under an inverted microscope. Suitable follicles are picked up using suitably arranged pasteur pipettes and transferred to a cryovial (for stocking, see example 3) or to a culture plate (for follicle culture, see example 4).
When starting from secondary follicles, one can start immediately with culture using the second medium. This medium will promote adhesion to the culture recipient surface. Culture medium is refreshed every four days. On day 12, the culture medium is refreshed using the third medium in stead of the second. This medium will cause the release of a mucified oocyte-cumulus complex from the follicle overnight, while the oocyte finalises maturation.
Cultures are done in 75 μl of culture medium. When refreshing medium, 30 μl of used medium is removed and 30 μl of fresh medium is added. Schematically, both procedures can be summarised as follows:
The same method is used as in example 4. Secondary follicles are used. […] All media used in the culture steps are constituted as follows:
The culture medium is refreshed every 4 days by removing 30 μl and addition of 30 μl of fresh medium.
After 13 days, follicles are scored on survival, mucification, presence of polar body (PB), and oocyte diameter.

The mark [1] stands for this setting: Taxol 0.01 nM in all media (plates 3+4).
The mark [2] stands for this setting: Taxol 0.1 nM in all media (plates 5+6).
[3] abbreviates: Taxol 1 nM in all media (plates 7+8).
Where [4] appears, read: Taxol 10 nM in all media (plate 9).

With `CC(=O)O[C@H]1C(=O)[C@@]2(C)[C@H]([C@H](OC(=O)c3ccccc3)[C@]3(O)C[C@H](OC(=O)[C@H](O)[C@@H](NC(=O)c4ccccc4)c4ccccc4)C(C)=C1C3(C)C)[C@]1(OC(C)=O)CO[C@@H]1C[C@@H]2O` [Taxol], the Mucification mean reads like this: under setting [1], 100%; under setting [2], 96%; under setting [3], 96%; under setting [4], 0. Moreover, the “PB (presence of polar body) mean” value turned out to be 75% under setting [1], 75% under setting [2], 55% under setting [3] and 0 under setting [4]. For the same compound, the Survival mean by setting is: under setting [1], 87%; under setting [2], 100%; under setting [3], 92%; under setting [4], 0%.
